Assay results: PubChem BioAssay (NCI)
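1) Cells in 96-well plates. 2) Compound, 48 h, 5 concentrations. 3) Linear interpolation between surrounding doses. 4) Unreached endpoint = highest concentration. TGI denotes the concentration required for complete inhibition of growth.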

Legend:
Test in all cases: growth of human tumour cells (NCI), 48 h
[1] = tested on: ACHN renal
[2] = tested on: BT-549 breast
[3] = tested on: CCRF-CEM leukemia
[4] = tested on: KM12 colon
[5] = tested on: MDA-MB-231 breast
[6] = tested on: MDA-MB-435
[7] = tested on: MOLT-4 leukemia
[8] = tested on: NCI-H23 lung
[9] = tested on: OVCAR-5 ovarian
[10] = tested on: OVCAR-8 ovarian
[11] = tested on: SF-295 CNS
[12] = tested on: SF-539 CNS
[13] = tested on: SK-MEL-2 melanoma
[14] = tested on: SK-MEL-28 melanoma
[15] = tested on: SNB-19 CNS
[16] = tested on: SNB-75 CNS
[17] = tested on: UACC-257 melanoma

| SMILES | TGI [1] | TGI [2] | TGI [3] | TGI [4] | TGI [5] | TGI [6] | TGI [7] | TGI [8] | TGI [9] | TGI [10] | TGI [11] | TGI [12] | TGI [13] | TGI [14] | TGI [15] | TGI [16] | TGI [17] |
| --- | --- | --- | --- | --- | --- | --- | --- | --- | --- | --- | --- | --- | --- | --- | --- | --- | --- |
| COC(=O)CNS(=O)(=O)c1ccc(-c2c3nc(c(-c4ccc(S(=O)(=O)NCC(=O)OC)cc4)c4ccc([nH]4)c(-c4ccc(S(=O)(=O)NCC(=O)OC)cc4)c4nc(c(-c5ccc(S(=O)(=O)NCC(=O)OC)cc5)c5ccc2[nH]5)C=C4)C=C3)cc1 | > 100 µM | > 100 µM | > 100 µM | > 100 µM | > 100 µM | > 100 µM | > 100 µM | > 100 µM | > 100 µM | > 100 µM | > 100 µM | > 100 µM | > 100 µM | > 100 µM | > 100 µM | > 100 µM | > 100 µM |
| CC(C)OCC1CC(CC(=O)Nc2nncs2)C(=O)O1 (configuration not stated) | > 100 µM | > 100 µM | > 100 µM | > 100 µM | > 100 µM | > 100 µM | > 100 µM | > 100 µM | > 100 µM | > 100 µM | > 100 µM | > 100 µM | > 100 µM | > 100 µM | > 100 µM | > 100 µM | > 100 µM |
| CC(=O)Oc1ccc(-c2cc3ccccc3oc2=O)cc1 | > 100 µM | > 100 µM | > 100 µM | 39.9 µM | > 100 µM | > 100 µM | > 100 µM | > 100 µM | > 100 µM | > 100 µM | > 100 µM | > 100 µM | > 100 µM | > 100 µM | > 100 µM | > 100 µM | > 100 µM |
| O=C(CCc1ccc(O)c(O)c1)NCCc1cc(O)cc(O)c1 | > 100 µM | > 100 µM | > 100 µM | > 100 µM | > 100 µM | 66.6 µM | > 100 µM | > 100 µM | > 100 µM | > 100 µM | > 100 µM | > 100 µM | > 100 µM | > 100 µM | > 100 µM | > 100 µM | > 100 µM |
| CC(C)(C)OC(=O)N1CCC(C(=O)O)CC1 | > 100 µM | > 100 µM | > 100 µM | > 100 µM | > 100 µM | > 100 µM | > 100 µM | > 100 µM | > 100 µM | > 100 µM | > 100 µM | > 100 µM | > 100 µM | > 100 µM | > 100 µM | > 100 µM | > 100 µM |
| Nc1cccc(/C=C/C(=O)N2CCN(CCOC(c3ccccc3)c3ccccc3)CC2)c1 | 31.6 µM | 29.2 µM | 26.4 µM | 30.7 µM | 29.1 µM | 29.8 µM | 21.2 µM | 35.5 µM | 34.6 µM | 35.6 µM | 32.1 µM | 31 µM | 29.7 µM | 28.9 µM | 32.4 µM | 26.2 µM | 31.5 µM |
